Laboratory results reported in ChEMBL document CHEMBL5291721, “A preclinical secondary pharmacology resource illuminates target-adverse drug reaction associations of marketed drugs” (Nat Commun, 2023).

Key:
Adenosine receptor A2a = Adenosine receptor A2a (Homo sapiens, UniProt P29274)
[1] = molecular target: T1, Alpha-2C adrenergic receptor (Homo sapiens, UniProt P18825); assay type: functional
T1 sequence (P18825 whole entry): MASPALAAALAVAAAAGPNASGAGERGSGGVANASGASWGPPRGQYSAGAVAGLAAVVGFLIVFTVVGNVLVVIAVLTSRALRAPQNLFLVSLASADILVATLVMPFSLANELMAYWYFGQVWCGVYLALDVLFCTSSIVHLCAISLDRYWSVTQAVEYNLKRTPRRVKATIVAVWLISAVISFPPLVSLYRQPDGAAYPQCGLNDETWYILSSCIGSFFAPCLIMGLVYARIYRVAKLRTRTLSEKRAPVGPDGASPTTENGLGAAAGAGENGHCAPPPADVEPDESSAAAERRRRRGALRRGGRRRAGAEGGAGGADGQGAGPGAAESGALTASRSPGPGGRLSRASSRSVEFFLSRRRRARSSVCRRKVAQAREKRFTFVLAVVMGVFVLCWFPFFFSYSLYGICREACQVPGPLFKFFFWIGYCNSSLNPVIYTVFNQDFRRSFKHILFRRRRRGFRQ

B2 bradykinin receptor = molecular target: T2, B2 bradykinin receptor (Homo sapiens, UniProt P30411)
T2 sequence (P30411 whole entry): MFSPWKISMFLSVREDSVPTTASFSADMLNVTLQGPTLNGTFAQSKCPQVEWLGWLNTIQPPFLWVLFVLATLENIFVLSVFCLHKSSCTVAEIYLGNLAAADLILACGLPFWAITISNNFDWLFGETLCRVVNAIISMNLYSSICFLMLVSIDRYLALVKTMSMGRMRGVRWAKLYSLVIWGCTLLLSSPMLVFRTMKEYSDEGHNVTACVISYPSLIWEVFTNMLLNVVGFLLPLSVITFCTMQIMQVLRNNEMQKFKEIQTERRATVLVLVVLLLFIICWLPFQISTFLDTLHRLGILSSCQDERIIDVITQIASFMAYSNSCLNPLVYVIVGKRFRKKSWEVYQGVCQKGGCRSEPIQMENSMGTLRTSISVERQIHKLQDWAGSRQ

[2] = molecular target: Glutamate receptor ionotropic, NMDA 1 (Rattus norvegicus, UniProt P35439)
[3] = molecular target: T3, 5-hydroxytryptamine receptor 2C (Homo sapiens, UniProt P28335)
T3 sequence (P28335 whole entry): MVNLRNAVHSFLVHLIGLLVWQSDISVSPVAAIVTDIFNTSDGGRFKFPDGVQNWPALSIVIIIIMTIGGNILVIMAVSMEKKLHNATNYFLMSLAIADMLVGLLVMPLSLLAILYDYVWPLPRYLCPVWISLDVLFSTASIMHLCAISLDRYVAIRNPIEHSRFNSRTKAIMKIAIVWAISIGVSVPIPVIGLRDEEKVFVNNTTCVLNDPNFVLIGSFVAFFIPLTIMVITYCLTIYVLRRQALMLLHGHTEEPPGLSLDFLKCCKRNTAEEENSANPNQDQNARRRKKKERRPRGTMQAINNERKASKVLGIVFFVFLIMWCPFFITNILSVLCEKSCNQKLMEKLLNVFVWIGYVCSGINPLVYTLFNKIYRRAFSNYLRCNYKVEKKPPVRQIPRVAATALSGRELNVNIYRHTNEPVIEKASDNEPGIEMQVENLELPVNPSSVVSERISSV

[4] = molecular target: T4, 5-hydroxytryptamine receptor 3A (Homo sapiens, UniProt P46098); assay type: functional
T4 sequence (P46098 whole entry): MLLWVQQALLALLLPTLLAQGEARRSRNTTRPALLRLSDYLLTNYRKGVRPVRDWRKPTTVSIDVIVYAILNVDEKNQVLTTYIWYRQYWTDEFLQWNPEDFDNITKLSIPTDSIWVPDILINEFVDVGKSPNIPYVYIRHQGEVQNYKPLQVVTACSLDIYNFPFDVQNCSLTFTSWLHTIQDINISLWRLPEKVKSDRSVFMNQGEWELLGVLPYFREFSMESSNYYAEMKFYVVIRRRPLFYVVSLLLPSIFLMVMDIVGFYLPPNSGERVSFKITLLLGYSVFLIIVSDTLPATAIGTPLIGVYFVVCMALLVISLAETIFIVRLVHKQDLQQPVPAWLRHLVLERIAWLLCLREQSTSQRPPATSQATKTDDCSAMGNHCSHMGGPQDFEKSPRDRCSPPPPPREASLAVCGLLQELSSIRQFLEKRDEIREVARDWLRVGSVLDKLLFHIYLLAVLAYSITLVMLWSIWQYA

[5] = molecular target: Voltage-gated inwardly rectifying potassium channel KCNH2 (Homo sapiens, UniProt Q12809); assay type: functional
Voltage-gated inwardly rectifying potassium channel KCNH2, sequence (Q12809 whole entry): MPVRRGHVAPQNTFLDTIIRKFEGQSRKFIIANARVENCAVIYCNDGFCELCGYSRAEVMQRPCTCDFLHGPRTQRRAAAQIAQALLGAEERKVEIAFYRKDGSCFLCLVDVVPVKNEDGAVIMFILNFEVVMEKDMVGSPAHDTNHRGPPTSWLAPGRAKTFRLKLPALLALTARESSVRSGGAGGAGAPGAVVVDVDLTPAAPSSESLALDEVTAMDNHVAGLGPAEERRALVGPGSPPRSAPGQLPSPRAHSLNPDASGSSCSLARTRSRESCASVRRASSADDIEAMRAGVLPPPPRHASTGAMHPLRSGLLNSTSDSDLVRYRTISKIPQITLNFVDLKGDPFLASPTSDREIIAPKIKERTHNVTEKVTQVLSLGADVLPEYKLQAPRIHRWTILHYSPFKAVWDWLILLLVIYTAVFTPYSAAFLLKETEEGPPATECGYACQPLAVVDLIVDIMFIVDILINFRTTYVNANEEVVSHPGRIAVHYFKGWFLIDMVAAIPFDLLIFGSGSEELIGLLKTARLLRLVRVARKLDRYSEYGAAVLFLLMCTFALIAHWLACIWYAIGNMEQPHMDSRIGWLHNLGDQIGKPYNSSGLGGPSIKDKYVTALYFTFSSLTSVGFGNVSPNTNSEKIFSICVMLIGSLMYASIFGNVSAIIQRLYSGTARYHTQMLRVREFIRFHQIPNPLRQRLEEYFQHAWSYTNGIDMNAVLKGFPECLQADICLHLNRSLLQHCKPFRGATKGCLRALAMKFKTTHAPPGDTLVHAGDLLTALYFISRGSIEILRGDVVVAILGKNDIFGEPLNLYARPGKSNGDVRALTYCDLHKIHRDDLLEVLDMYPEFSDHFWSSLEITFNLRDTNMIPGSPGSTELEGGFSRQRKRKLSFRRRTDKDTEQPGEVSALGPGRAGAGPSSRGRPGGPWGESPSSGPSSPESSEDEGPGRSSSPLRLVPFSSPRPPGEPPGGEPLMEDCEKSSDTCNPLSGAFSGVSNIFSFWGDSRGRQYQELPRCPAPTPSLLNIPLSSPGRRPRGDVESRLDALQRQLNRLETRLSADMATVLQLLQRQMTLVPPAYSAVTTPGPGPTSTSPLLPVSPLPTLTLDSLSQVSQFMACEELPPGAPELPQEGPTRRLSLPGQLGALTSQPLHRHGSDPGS

[6] = molecular target: T5, Neuropeptide Y receptor type 1 (Homo sapiens, UniProt P25929); details: read-out: AC50
T5 sequence (P25929 whole entry): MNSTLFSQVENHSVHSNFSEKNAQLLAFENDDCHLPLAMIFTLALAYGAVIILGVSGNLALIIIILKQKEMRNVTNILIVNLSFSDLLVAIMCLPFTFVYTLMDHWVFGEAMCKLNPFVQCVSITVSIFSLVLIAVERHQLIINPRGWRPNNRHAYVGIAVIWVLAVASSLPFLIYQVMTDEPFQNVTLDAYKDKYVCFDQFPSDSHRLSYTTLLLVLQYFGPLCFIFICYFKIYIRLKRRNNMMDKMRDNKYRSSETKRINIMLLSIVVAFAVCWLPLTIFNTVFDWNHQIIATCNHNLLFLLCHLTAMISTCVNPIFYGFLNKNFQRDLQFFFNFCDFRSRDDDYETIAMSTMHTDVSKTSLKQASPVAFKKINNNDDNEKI

[7] = molecular target: Delta-type opioid receptor (Homo sapiens, UniProt P41143)
Delta-type opioid receptor, sequence (P41143 whole entry): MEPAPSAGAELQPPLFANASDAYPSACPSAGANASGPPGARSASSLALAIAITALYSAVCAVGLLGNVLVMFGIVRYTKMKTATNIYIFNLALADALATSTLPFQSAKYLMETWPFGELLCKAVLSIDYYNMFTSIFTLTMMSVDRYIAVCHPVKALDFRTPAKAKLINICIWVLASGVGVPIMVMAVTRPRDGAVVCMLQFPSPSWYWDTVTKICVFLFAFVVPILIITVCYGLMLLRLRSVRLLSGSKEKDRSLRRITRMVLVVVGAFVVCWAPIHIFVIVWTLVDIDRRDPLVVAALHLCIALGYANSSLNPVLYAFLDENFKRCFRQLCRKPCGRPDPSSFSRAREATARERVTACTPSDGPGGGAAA

[8] = molecular target: cGMP-inhibited 3',5'-cyclic phosphodiesterase 3A (Homo sapiens, UniProt Q14432); assay type: functional
cGMP-inhibited 3',5'-cyclic phosphodiesterase 3A, sequence (Q14432 whole entry): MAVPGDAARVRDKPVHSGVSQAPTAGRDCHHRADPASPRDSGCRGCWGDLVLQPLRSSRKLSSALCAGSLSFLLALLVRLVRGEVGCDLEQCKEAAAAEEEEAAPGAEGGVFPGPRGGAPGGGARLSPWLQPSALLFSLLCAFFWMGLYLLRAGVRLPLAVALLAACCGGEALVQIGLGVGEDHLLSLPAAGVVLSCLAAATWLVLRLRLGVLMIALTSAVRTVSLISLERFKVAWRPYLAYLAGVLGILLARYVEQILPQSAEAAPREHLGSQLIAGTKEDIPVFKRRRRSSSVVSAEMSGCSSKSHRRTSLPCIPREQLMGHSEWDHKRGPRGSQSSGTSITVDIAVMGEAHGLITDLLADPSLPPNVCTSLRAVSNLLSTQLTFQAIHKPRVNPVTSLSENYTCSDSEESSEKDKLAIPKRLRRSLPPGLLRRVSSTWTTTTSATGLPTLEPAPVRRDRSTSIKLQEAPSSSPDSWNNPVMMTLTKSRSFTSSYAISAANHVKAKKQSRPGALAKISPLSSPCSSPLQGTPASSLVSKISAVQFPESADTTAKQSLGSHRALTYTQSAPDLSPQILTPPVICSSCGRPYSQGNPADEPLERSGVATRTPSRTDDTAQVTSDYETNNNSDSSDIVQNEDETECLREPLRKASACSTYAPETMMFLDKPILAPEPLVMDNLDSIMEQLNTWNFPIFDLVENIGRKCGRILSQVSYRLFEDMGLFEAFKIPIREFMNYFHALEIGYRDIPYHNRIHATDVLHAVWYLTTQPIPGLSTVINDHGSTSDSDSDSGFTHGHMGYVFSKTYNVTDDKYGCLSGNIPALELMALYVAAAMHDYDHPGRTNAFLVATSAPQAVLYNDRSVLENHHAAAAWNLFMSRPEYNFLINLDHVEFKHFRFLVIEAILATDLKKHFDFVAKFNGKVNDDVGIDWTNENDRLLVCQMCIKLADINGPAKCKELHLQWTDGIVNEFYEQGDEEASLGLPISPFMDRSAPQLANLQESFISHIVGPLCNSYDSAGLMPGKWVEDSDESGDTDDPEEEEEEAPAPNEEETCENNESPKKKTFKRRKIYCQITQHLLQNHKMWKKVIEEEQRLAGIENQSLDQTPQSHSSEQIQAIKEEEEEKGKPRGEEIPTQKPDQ
Note: assay procedure not described here.

Adenosine receptor A2a, sequence (P29274 whole entry): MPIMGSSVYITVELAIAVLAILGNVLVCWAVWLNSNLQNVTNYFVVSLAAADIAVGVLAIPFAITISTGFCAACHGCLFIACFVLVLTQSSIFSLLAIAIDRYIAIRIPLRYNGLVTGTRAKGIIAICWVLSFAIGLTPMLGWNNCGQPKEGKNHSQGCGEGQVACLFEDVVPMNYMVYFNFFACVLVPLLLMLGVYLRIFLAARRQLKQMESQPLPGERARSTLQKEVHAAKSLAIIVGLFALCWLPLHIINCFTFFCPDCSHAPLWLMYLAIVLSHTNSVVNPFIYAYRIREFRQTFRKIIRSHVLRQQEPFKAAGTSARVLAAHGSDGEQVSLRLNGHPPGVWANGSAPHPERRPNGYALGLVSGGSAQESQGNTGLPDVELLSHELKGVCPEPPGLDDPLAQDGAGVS

| SMILES | AC50 (Adenosine receptor A2a) [µM] | AC50 [1] [µM] | AC50 (B2 bradykinin receptor) [µM] | AC50 [2] [µM] | AC50 [3] [µM] | AC50 [4] [µM] | AC50 [5] [µM] | AC50 [6] [µM] | AC50 [7] [µM] | AC50 [8] [µM] |
| --- | --- | --- | --- | --- | --- | --- | --- | --- | --- | --- |
| CCC(C)C(CC)C(N)=O (configuration not stated) [VALNOCTAMIDE] | > 30 | > 30 | > 30 | > 30 | > 30 | > 30 | > 30 | > 30 | > 30 | > 30 |
| CCCN[C@H]1CCc2nc(N)sc2C1 [PRAMIPEXOLE] | > 30 | > 10 | > 30 | > 10 | > 30 | > 30 | > 30 | > 30 | > 30 | > 30 |
| CC(C)[C@H](N)C(=O)OCC(CO)OCn1cnc2c(=O)nc(N)[nH]c21 (some centres not stated) [VALGANCICLOVIR] | > 30 | > 30 | > 30 | > 30 | > 30 | > 30 | > 30 | > 30 | > 30 | 7 |
| [H]/N=C(/N)N/C(=N/[H])NCCc1ccccc1 [PHENFORMIN] | > 30 | > 30 | > 30 | 2.32 | > 30 | > 30 | > 30 | > 30 | > 30 | 22 |
| Cc1cc(C(C)(C)C)cc(C)c1CC1=NCCN1 [XYLOMETAZOLINE] | > 30 | 0.239 | > 30 | > 30 | 10 | > 30 | 5.2 | > 30 | > 30 | > 30 |
| CCOC(=O)C1=C[C@]2(CC)CCCN3CCc4c(n1c1ccccc41)[C@@H]32 [VINPOCETINE] | > 30 | 1.1 | > 30 | > 30 | > 30 | > 30 | – | > 30 | > 30 | > 30 |
| C#C[C@]1(OC(C)=O)CC[C@H]2[C@@H]3CCC4=C/C(=N/O)CC[C@@H]4[C@H]3CC[C@@]21CC [NORGESTIMATE] | > 30 | > 30 | > 30 | > 30 | > 30 | > 30 | > 30 | > 30 | > 30 | > 30 |
| CC(C(=O)O)c1ccc(-c2ccccc2)c(F)c1 (configuration not stated) [FLURBIPROFEN] | > 10 | > 10 | > 10 | > 10 | 2.6 | > 10 | > 30 | > 10 | > 30 | > 30 |
| Cc1cc2cc3c(C)cc(=O)oc3c(C)c2o1 [TRIOXSALEN] | 6.7 | > 10 | > 10 | > 10 | > 30 | > 30 | > 30 | > 10 | > 30 | > 30 |
| CCCC(CCC)C(N)=O [VALPROMIDE] | > 30 | > 10 | > 30 | > 10 | > 30 | > 30 | > 30 | > 30 | > 30 | > 30 |
| CCOC(=O)C1=C(C)NC(C)=C(C(=O)OC)C1c1cccc([N+](=O)[O-])c1 (configuration not stated) [NITRENDIPINE] | > 30 | > 10 | > 30 | > 10 | > 30 | > 30 | > 30 | > 30 | > 30 | > 30 |
| C/N=C(\NC)NCc1ccccc1 [BETHANIDINE] | > 30 | > 30 | > 30 | > 30 | > 10 | > 30 | > 30 | > 30 | > 30 | > 30 |
| OC1(c2ccc(Cl)cc2)c2ccccc2C2=NCCN21 (configuration not stated) [MAZINDOL] | > 30 | > 30 | > 30 | > 30 | > 30 | > 30 | > 30 | > 30 | > 30 | > 30 |
| CC(CCc1ccc(O)cc1)NCCc1ccc(O)c(O)c1 (configuration not stated) [DOBUTAMINE] | > 30 | 0.798 | > 30 | > 30 | > 30 | 27 | 20.3 | > 30 | > 30 | > 30 |
| CCCCC1C(=O)N(c2ccccc2)N(c2ccccc2)C1=O [PHENYLBUTAZONE] | > 30 | > 10 | > 30 | > 10 | > 30 | > 30 | > 30 | > 30 | > 30 | > 30 |
| Clc1ccc(C(Cn2ccnc2)OCc2ccsc2Cl)c(Cl)c1 (configuration not stated) [TIOCONAZOLE] | > 30 | 6.5 | > 3 | > 30 | > 30 | > 30 | – | > 30 | 3.2 | 17 |
| COc1cc(N)c(Cl)cc1C(=O)NC1CCN(Cc2ccccc2)CC1 [CLEBOPRIDE] | > 30 | 2.1 | > 30 | > 30 | 13 | 8.6 | 1.4 | > 30 | > 30 | 7.7 |
| CCC1(c2ccccc2)CCC(=O)NC1=O (configuration not stated) [GLUTETHIMIDE] | > 10 | > 10 | > 10 | > 10 | > 30 | > 30 | > 30 | > 10 | > 30 | > 30 |
| CC(C)COCC(CN(Cc1ccccc1)c1ccccc1)N1CCCC1 (configuration not stated) [BEPRIDIL] | > 30 | 3.3 | > 30 | > 30 | > 30 | > 30 | – | > 30 | > 30 | > 30 |
